Source: US20090247732A1 (Optimer Pharmaceuticals, Inc., priority 2003, published 2009)
Ends that are not written are not given here. Peptide text beside a SMILES is read from it. * marks the point of attachment. Fmoc = O=C(OCC1c2ccccc2-c2ccccc21)*

Columns and labels:
[1] = system: trypsin; assay: trypsin in 0.1 M, pH 7.5 potassium phosphate buffer; conditions: up to 40 minutes
[2] = system: trypsin; assay: Degradation study with trypsin (LCMS, product ratios by PDA integration); assay type: in vitro ADME; design: key to Deg 1 / Deg 2: product ratio (%) by PDA peak integration; conditions: for Deg 1 / Deg 2 / mode of enzymatic degradation (cleavage site / products): trypsin; for Deg 1 / Deg 2: pH 7.5; for Parent (%): 120 units trypsin, 0.1 M pH 7.5 potassium phosphate buffer; for mode of enzymatic degradation (cleavage site / products): in words
Method: Degradation Study: A solution of 1 (1 mg) in 0.1 M, pH 7.5 potassium phosphate buffer (1 mL) was treated with 120 units of trypsin (10 μL of a 1 mg/mL solution of trypsin 12000 units/mg). A 20 μL aliquot of the sample was immediately analyzed by LCMS.
Column: Waters Symmetry 300, 4.6×250 mm, C18, 5 micron particle size.
Solvent B: Acetonitrile/0.1% TFA
Gradient: 15-40% B over 30 minutes; 15% B isocratic for 10 minutes
The initial injection was defined as “time 0” and one subsequent injection was carried out at 40 minutes. The degradation products were characterized by mass spectrometry using electrospray positive ionization (ES^+). Product ratios were determined by integration of photodiode array (PDA) spectra.

[3] = degradation product 1, time 40 minutes
[4] = degradation product 2, time 40 minutes
[5] = time 40 (injection at 40 minutes)

Molecule | cleaved bond [1] | fragment found [1] | Deg 1 ([2]; degradation product 1, time 0) | Deg 1 [2, 3] | Deg 2 ([2]; degradation product 2, time 0) | Deg 2 [2, 4] | Parent (%) ([2]; time 0 (initial injection)) | Parent (%) [2, 5] | mode of enzymatic degradation (cleavage site / products) [2] | not cleaved [1]
KKRGGS [1] | arginine-glycine, first_seen | the two lysine residues conjugated to the carbohydrate |  |  |  |  |  |  |  | 
CC(=O)OCC1OC(OC2C(COC(C)=O)OC(OC3C(COC(C)=O)OC(OCC(=O)NC(CCCCN)C(=O)NC(CCCCN)C(=O)NC(CCCNC(=N)N)C(=O)NCC(=O)NCC(=O)NC(CO)C(=O)O)C(OC(C)=O)C3OC(C)=O)C(OC(C)=O)C2OC(C)=O)C(OC(C)=O)C(OC(C)=O)C1OC(C)=O (stereo not shown) [Compound 1] |  |  | 5 | 0 | 20 | 100 | 75% | 0% | hydrolysis is initially observed between the arginine and glycine residues | 
Compound 2: Crude triphenylmethyl protected glycopeptide from peptide A (SEQ ID No. 1) and carbohydrate glycolic acid C (KKRGGS; also: glycopeptide with carbohydrate glycolic acid C, triphenylmethyl protected) |  |  | 0 | 67 |  |  | 60% | 27% | a single, as yet uncharacterized product of the enzyme reaction | 
KKRGGS |  |  |  |  |  |  |  |  |  | 100% parent at 40 minutes; no degradation products observed
N=C(N)NCCCC(NC(=O)C(CCCCN)NC(=O)C(CCCCN)NC(=O)OCC1c2ccccc2-c2ccccc21)C(=O)NCC(=O)NCC(=O)NC(CO)C(=O)O (stereo not shown) [Compound 4] (Fmoc-KKRGGS-OH; configuration not given here) |  |  | 4 | 54 | 4 | 45 | 92% | 1% | hydrolysis occurs sequentially inward from the N-terminus | 
